Reference: patent US7576076B2, “Modified pyrimidine glucocorticoid receptor modulators” (Corcept Therapeutics, Inc., priority 2004, dated 2009)
Read-outs that look alike come from different tables or passages of the source.

Columns and labels:
[1] = molecular target: T1, human recombinant glucocorticoid receptor (Homo sapiens, UniProt P04150); assay: Glucocorticoid receptor binding displacement assay with 3H-dexamethasone
T1 construct: This GR was a full-length steroid hormone receptor; host or cells: recombinant baculovirus-infected insect cells
T1 sequence (P04150 1-777): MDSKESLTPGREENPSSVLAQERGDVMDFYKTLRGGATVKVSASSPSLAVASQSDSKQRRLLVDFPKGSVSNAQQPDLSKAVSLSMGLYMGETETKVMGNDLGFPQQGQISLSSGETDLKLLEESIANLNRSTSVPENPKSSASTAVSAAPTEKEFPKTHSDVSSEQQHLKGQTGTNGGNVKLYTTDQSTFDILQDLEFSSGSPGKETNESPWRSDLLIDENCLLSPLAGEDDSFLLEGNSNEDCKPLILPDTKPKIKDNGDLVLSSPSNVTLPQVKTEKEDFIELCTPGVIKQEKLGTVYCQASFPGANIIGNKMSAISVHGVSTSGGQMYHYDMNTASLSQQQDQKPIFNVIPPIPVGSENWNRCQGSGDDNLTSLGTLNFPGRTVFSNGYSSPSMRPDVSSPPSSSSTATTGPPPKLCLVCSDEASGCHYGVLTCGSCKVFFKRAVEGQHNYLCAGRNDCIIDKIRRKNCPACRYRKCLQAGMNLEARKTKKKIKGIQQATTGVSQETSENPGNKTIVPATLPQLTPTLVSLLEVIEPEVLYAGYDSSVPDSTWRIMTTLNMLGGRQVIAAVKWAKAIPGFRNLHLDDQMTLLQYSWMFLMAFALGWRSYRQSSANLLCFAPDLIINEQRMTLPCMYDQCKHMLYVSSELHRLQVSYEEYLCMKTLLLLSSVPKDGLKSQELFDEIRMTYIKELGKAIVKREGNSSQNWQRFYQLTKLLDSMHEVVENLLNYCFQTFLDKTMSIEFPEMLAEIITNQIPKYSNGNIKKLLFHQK
Method: The source of the receptor was recombinant baculovirus-infected insect cells. This GR was a full-length steroid hormone receptor likely to be associated with heat-shock and other endogenous proteins.
For the Primary Screen, test compounds were tested at 1 μM in duplicate. These compounds were diluted from 10 mM stock in 100% DMSO. After dilution to 100 μM, 5 μl were added to 245 μl assay buffer to obtained 2 μM compound and 2% DMSO.
For the IC50 determinations, test compounds were tested at 6 concentrations in duplicate (concentration range depends on % inhibition binding that was obtained in the Primary Screen,). Test compounds were diluted from 10 mM stock in 100% DMSO. The tested solutions were prepared at 2×final assay concentration in 2% DMSO/assay buffer.
All reagents and the assay plate were kept on ice during the addition of reagents. […] After the additions, the incubation mixture was mixed and incubated for 2.5 hrs at 4° C.
After 2.5 hrs incubation, unbound counts were removed with dextran coated charcoal (DCC) as follows: 25 μl of DCC solution (10% DCC in assay buffer) was added to all wells and mixed (total volume 225 μl). The plate was centrifuged at 4000 rpm for 10 minutes at 4° C. 75 μl of the supernatants (i.e. ⅓ of total volume) was carefully pipetted into an optiplate. 200 μl of scintillation cocktail were added (Microscint-40, Packard Bioscience. B.V.). The plate was vigorously shaken for approx. 10 minutes and counted on Topcount.
The IC50 values were converted to Ki (the inhibition constant) using the Cheng-Prusoff equation.
Reagents: Assay buffer: 10 mM potassium phosphate buffer pH 7.6 containing 5 mM DTT, 10 mM sodium molybdate, 100 μM EDTA and 0.1% BSA.

[2] = molecular target: T2, endogenous glucocorticoid receptors in SW1353/MMTV-5 cells (Homo sapiens, UniProt P04150); assay: GR functional assay using SW1353/MMTV-5 cells (luciferase reporter); type: cell-based
T2 construct: contains endogenous glucocorticoid receptors; endogenous in cells; host or cells: SW1353/MMTV-5 (human chondrosarcoma, stably transfected with the pMAMneo-Luc reporter only)
T2 sequence (P04150 1-777): T1 sequence (P04150 1-777)
Method: SW1353/MMTV-5 is an adherent human chondrosarcoma cell line that contains endogenous glucocorticoid receptors. It was transfected with a plasmid (pMAMneo-Luc) encoding firefly luciferase located behind a glucocorticoid-responsive element (GRE) derived from a viral promoter (long terminal repeat of mouse mammary tumor virus). A stable cell line SW1353/MMTV-5 was selected with geneticin, which was required to maintain this plasmid.
SW1353/MMTV-5 cells were distributed in 96-well plates and incubated in medium (without geneticin) for 24 hrs (in the absence of CO2).

[3] = displacement of 2.5 nM 3H-dexamethasone, IC50 converted to Ki by Cheng-Prusoff, read-out: Ki

Row | SMILES | Ki [1, 3] [nM] | Ki [2] [nM] | Ki ([1]; Ki) [nM]
1 | CCn1c(=O)[nH]c(N2CCC(Cc3ccccc3)CC2)c(Cc2cccc(Cl)c2)c1=O [Compound 29] | > 100 |  | 
2 | CC(C)Cn1c(=O)[nH]c(N2CCC(Cc3ccccc3)CC2)c(Cc2cccc(Cl)c2)c1=O [Compound 26] | > 100 |  | 
3 | Cc1ccc(Cc2c(N3CCC(Cc4ccccc4)CC3)[nH]c(=O)n(C)c2=O)cc1 [Compound 10] | 10 to 100 |  | 
4 | Cn1c(=O)[nH]c(N2CCC(c3ccccc3)CC2)c(CCc2ccccc2)c1=O [Compound 28] | > 100 |  | 
5 | O=c1[nH]c(N2CCC(c3ccccc3)CC2)c(Cc2ccccc2)c(=O)[nH]1 [Compound 31] | < 10 | 10 to 100 | 
6 | Cn1c(=O)[nH]c(N2CCC(Oc3ccccc3)CC2)c(Cc2ccccc2)c1=O [Compound 37] |  |  | 10 to 100
7 | O=c1[nH]c(N2CCC(Cc3ccccc3)CC2)c(Cc2cccc(Cl)c2)c(=O)n1Cc1ccccc1 [Compound 24] | 10 to 100 |  | 
8 | COc1ccccc1C1CCN(c2[nH]c(=O)[nH]c(=O)c2Cc2ccccc2)CC1 [Compound 41] | < 10 |  | 
9 | Cn1c(=O)[nH]c(N2CCC(O)CC2)c(Cc2cccc(C(F)(F)F)c2)c1=O [Compound 1] | > 100 |  | 
10 | Cn1c(=O)[nH]c(N2CCC(Cc3ccccc3)CC2)c(Cc2ccccc2Br)c1=O [Compound 3] | > 100 |  | 
11 | Cn1c(=O)[nH]c(N2CCC(c3ccccc3)CC2)c(Cc2ccccc2Cl)c1=O [Compound 34] | 10 to 100 | > 100 | 
12 | Cn1c(=O)[nH]c(N2CCC(Cc3ccccc3)CC2)c(Cc2ccccc2Br)c1=O [Compound 4] | 10 to 100 |  | 
13 | O=c1[nH]c(N2CCC(c3ccccc3)CC2)c(Cc2ccc(Cl)cc2)c(=O)[nH]1 [Compound 36] | 10 to 100 | > 100 | 
14 | Cn1c(=O)[nH]c(N2CCC(c3ccccc3)CC2)c(Cc2ccccc2)c1=O [Compound 17] | 10 to 100 |  | 
15 | CC(=O)Nc1ccc(C2CCN(c3[nH]c(=O)[nH]c(=O)c3Cc3ccccc3)CC2)cc1 [Compound 46] | 10 to 100 |  | 
16 | Cn1c(=O)[nH]c(N2CCN(C(c3ccccc3)c3ccccc3)CC2)c(Cc2ccccc2)c1=O [Compound 21] | > 100 |  | 
17 | O=c1[nH]c(N2CCN(Cc3ccccc3)CC2)c(Cc2ccccc2)c(=O)[nH]1 [Compound 22] | > 100 |  | 
18 | Cn1c(=O)[nH]c(N2CCC(Cc3ccccc3)CC2)c(Cc2ccc(F)cc2Cl)c1=O [Compound 8] | > 100 |  | 
19 | O=c1[nH]c(N2CCC(Cc3ccccc3)CC2)c(Cc2ccccc2)c(=O)[nH]1 [Compound 18] | 10 to 100 |  | 
20 | Cn1c(=O)[nH]c(N2CCC(Cc3ccccc3)CC2)c(Cc2ccccc2-c2ccccc2)c1=O [Compound 14] | > 100 |  | 

Row | SMILES | Ki [1, 3] [nM] | Ki [2] [nM] | Ki ([1]; Ki) [nM]
21 | O=c1[nH]c(N2CCC(c3ccccc3)CC2)c(Cc2ccccc2Cl)c(=O)[nH]1 [Compound 33] | < 10 | 10 to 100 | 
22 | Cn1c(=O)[nH]c(N2CCC(Cc3ccccc3)CC2)c(Cc2ccc(F)cc2F)c1=O [Compound 6] | 10 to 100 |  | 
23 | Cn1c(=O)[nH]c(N2CCN(Cc3ccccc3)CC2)c(Cc2ccccc2)c1=O [Compound 16] | > 100 |  | 
24 | CC(C)=CCc1c(N2CCC(Cc3ccccc3)CC2)[nH]c(=O)n(C)c1=O [Compound 11] | > 100 |  | 
25 | Cn1c(=O)[nH]c(N2CCC(Cc3ccccc3)CC2)c(Cc2ccccc2)c1=O [Compound 5] | 10 to 100 |  | 
26 | Cn1c(=O)[nH]c(N2CCC(Cc3ccccc3)CC2)c(Cc2ccc(C(C)(C)C)cc2)c1=O [Compound 13] | > 100 |  | 
27 | CCn1c(=O)[nH]c(N2CCC(c3ccccc3)CC2)c(Cc2cccc(Cl)c2)c1=O [Compound 30] | > 100 |  | 
28 | O=c1[nH]c(N2CCC(c3ccccc3)CC2)c(Cc2cccc(Cl)c2)c(=O)n1Cc1ccccc1 [Compound 27] | > 100 |  | 
29 | O=c1[nH]c(N2CCC(Cc3ccccc3)CC2)c(Cc2cccc(Cl)c2)c(=O)n1-c1ccccc1 [Compound 25] | > 100 |  | 
30 | O=c1[nH]c(N2CCC(c3ccccc3)CC2)c(Cc2cccc(Cl)c2)c(=O)[nH]1 [Compound 35] | < 10 | 10 to 100 | 
31 | Cn1c(=O)[nH]c(N2CCC(O)(Cc3ccccc3)CC2)c(Cc2ccccc2)c1=O [Compound 19] | > 100 |  | 
32 | Cn1c(=O)[nH]c(N2CCC(Cc3ccccc3)CC2)c(Cc2ccc(C#N)cc2)c1=O [Compound 9] | > 100 |  | 
33 | COc1cccc(C2CCN(c3[nH]c(=O)[nH]c(=O)c3Cc3ccccc3)CC2)c1 [Compound 39] | < 10 |  | 
34 | Cn1c(=O)[nH]c(N2CCC(Cc3ccccc3)CC2)c(Cc2ccc(Br)cc2)c1=O [Compound 7] | 10 to 100 |  | 
35 | CCOC(=O)N1CCN(c2[nH]c(=O)n(C)c(=O)c2Cc2cccc(C(F)(F)F)c2)CC1 [Compound 2] | > 100 |  | 
36 | COc1ccc(C2CCN(c3[nH]c(=O)[nH]c(=O)c3Cc3ccccc3)CC2)cc1 [Compound 40] | 10 to 100 |  | 
37 | O=c1[nH]c(N2CCC(c3ccccc3)CC2)c(Cc2cccc(Br)c2)c(=O)[nH]1 [Compound 38] | 10 to 100 | 10 to 100 | 
38 | O=c1[nH]c(N2CCC(c3c[nH]c4ccccc34)CC2)c(Cc2ccccc2)c(=O)[nH]1 [Compound 42] | 10 to 100 |  | 
39 | N#Cc1cccc(Cc2c(N3CCC(c4ccccc4)CC3)[nH]c(=O)[nH]c2=O)c1 [Compound 48] | 10 to 100 |  | 
